Where “and” joins values, the source holds several entries; their conditions need not be identical. Identical values can stand only once. Entries after “also recorded” stand apart in the source; their conditions may differ. Like-named read-outs stand apart in the source and are kept apart here.
Columns and labels:
in vitro [1] = conditions: human, microsomes, pH 7.4
SARS-CoV-2 [2] = experiment: microbe, parasite or virus in culture; assay type: cell-based; conditions: for EC50: Severe acute respiratory syndrome coronavirus 2, 24 h, read-out: SARS-CoV-2 Huh-7ACE2 EC50
in vitro [3] = conditions: human, plasma
physchem = conditions: aqueous buffer, kinetic from dmso stock
Cathepsin L [4] = biological target: T1, Cathepsin L (Homo sapiens, UniProt P07711); conditions: read-out: IC50 on human cathepsin L; cited from earlier work
T1 construct: Human liver; from tissue; host or cells: human liver

in vitro [5] = conditions: CD-1, mouse, microsomes, pH 7.4
human chymotrypsin = experiment: Chymotrypsin activity assay (Panc-1 cell lysate); assay type: biochemical
SARS-CoV-2 [6] = experiment: microbe, parasite or virus in culture; assay type: cell-based; conditions: Severe acute respiratory syndrome coronavirus 2, read-out: SARS-CoV-2 EC50
in vitro [7] = conditions: CD-1, mouse, plasma
SARS-CoV-2 [8] = experiment: microbe, parasite or virus in culture; assay type: cell-based
MMP 1 = MMP 1 (Homo sapiens, UniProt P03956); experiment: biochemical
Thrombin a = Thrombin a (Homo sapiens, UniProt P00734); experiment: biochemical
Urokinase = Urokinase (Homo sapiens, UniProt P00749); experiment: biochemical
[9] = test system: Influenza A H1N1 (strain: California/07/2009); experiment: microbe, parasite or virus in culture; assay type: cell-based
Factor Xa = Factor Xa (Homo sapiens, UniProt P00742); experiment: biochemical
[10] = test system: Human coronavirus alpha (strain: 229E); experiment: organism not typed; assay type: cell-based, HCoV-229E
PLpro = PLpro (Severe acute respiratory syndrome coronavirus 2, UniProt P0DTD1); experiment: Protease selectivity panel: PLpro; assay type: biochemical; conditions: SARS-CoV-2 recombinant
Trypsin = Trypsin (Bos taurus, UniProt P00760); experiment: Protease selectivity panel: Trypsin; assay type: biochemical; conditions: Bovine pancreas
[11] = mouse, in vivo, po
TMPRSS2 = TMPRSS2 (Homo sapiens, UniProt O15393); experiment: biochemical
Cathepsin L [12] = biological target: T1, Cathepsin L; experiment: Protease selectivity panel: Cathepsin L; assay type: biochemical
Cathepsin S = Cathepsin S (Homo sapiens, UniProt P25774); experiment: Protease selectivity panel: Cathepsin S
[13] = test system: MERS Coronavirus (strain: EMC); experiment: microbe, parasite or virus in culture; assay type: cell-based, MERS-CoV
SARS-CoV-2 3CL protease [14] = biological target: T2, SARS-CoV-2 3CL protease (Severe acute respiratory syndrome coronavirus 2, UniProt P0DTD1); experiment: biochemical
Elastase = Elastase (Homo sapiens, UniProt P08246); experiment: biochemical
Caspase 8 = Caspase 8 (Homo sapiens, UniProt Q14790); experiment: biochemical
Furin = Furin (Homo sapiens, UniProt P09958); experiment: biochemical
SARS-CoV-2 [15] = experiment: microbe, parasite or virus in culture; conditions: Severe acute respiratory syndrome coronavirus 2, Caco-2, 72 h, read-out: SARS-CoV-2 Caco-2 EC90
ACE2 = ACE2 (Homo sapiens, UniProt Q9BYF1); experiment: biochemical
[16] = test system: Human coronavirus beta (strain: OC43); experiment: organism not typed; assay type: cell-based, HCoV-OC43; conditions: Huh-7, read-out: EC50, human coronavirus OC43
in vitro [17] = experiment: in vitro
ACE1 = ACE1 (Homo sapiens, UniProt P12821); experiment: biochemical
SARS-CoV-2 3CL protease [18] = biological target: T2, SARS-CoV-2 3CL protease; experiment: biochemical; conditions: for IC50: read-out: SARS-CoV-2 3CLpro IC50
[19] = In vivo safety study of NK01-63 (body weight); conditions: C57BL/6 mice, 20 mg/kg IP or PO once per day, 14 days, vs vehicle
Cathepsin B = Cathepsin B (Homo sapiens, UniProt P07858); experiment: biochemical
[20] = test system: SARS coronavirus (strain: Urbani); experiment: organism not typed; assay type: cell-based, SARS-CoV
[21] = both, C57BL/6, mouse, in vivo
Cathepsin K = Cathepsin K (Homo sapiens, UniProt P43235); experiment: Protease selectivity panel: Cathepsin K
Chain of Cathepsin K (P43235 115-329): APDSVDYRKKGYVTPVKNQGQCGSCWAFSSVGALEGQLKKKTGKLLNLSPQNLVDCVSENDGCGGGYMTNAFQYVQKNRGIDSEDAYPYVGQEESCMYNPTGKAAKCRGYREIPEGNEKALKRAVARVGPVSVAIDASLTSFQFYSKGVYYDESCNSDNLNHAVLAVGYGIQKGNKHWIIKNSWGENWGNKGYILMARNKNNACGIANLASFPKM

T1 sequence (P07711 114-333): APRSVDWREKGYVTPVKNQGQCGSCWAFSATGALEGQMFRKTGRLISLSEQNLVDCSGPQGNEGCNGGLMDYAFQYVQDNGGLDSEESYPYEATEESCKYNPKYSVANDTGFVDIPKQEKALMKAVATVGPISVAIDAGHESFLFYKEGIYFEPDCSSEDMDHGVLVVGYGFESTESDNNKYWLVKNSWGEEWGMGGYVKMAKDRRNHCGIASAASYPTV
Chain of Caspase 8 (Q14790 217-479): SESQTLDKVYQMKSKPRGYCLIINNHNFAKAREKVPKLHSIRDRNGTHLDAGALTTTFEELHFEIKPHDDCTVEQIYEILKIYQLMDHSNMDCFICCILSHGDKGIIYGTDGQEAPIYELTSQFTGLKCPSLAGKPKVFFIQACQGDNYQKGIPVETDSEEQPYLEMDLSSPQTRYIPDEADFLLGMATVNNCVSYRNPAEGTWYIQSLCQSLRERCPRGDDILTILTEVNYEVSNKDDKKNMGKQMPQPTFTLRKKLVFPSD
Chain of MMP 1 (P03956 100-268): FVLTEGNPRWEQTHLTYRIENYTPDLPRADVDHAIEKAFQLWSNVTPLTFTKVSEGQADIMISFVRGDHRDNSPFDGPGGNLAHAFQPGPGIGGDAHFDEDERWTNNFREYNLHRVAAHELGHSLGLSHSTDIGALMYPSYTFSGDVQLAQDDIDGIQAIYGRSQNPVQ
Chain of ACE2 (Q9BYF1 18-740): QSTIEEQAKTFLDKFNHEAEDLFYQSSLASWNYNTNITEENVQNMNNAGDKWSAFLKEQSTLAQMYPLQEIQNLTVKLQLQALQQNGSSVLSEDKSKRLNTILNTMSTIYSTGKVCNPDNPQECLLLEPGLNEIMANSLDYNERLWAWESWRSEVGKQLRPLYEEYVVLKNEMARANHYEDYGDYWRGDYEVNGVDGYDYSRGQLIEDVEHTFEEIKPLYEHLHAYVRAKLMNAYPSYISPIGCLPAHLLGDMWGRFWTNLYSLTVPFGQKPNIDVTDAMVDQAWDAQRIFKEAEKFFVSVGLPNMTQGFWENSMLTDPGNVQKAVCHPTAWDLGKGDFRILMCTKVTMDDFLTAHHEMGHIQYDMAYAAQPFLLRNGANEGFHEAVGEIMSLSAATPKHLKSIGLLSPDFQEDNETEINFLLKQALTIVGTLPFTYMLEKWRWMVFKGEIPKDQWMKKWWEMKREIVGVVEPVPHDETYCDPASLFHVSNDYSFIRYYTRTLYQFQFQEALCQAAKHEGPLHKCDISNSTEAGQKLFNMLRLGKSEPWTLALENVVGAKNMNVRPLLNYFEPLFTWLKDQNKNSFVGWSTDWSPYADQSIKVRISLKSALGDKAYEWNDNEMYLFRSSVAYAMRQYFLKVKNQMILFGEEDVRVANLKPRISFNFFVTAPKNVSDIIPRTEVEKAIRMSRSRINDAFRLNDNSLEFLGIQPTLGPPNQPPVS
Chain of TMPRSS2 (O15393 106-492): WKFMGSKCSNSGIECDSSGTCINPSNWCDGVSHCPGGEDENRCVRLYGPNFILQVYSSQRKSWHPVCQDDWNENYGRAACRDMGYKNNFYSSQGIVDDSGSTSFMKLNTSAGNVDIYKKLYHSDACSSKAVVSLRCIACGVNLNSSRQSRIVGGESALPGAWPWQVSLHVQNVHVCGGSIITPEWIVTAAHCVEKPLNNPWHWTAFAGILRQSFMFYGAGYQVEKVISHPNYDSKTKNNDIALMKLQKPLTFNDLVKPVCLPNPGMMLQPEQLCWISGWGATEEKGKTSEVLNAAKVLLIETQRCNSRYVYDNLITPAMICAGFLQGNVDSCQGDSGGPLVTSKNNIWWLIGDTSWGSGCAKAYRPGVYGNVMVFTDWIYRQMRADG
Chain of Factor Xa (P00742 235-488): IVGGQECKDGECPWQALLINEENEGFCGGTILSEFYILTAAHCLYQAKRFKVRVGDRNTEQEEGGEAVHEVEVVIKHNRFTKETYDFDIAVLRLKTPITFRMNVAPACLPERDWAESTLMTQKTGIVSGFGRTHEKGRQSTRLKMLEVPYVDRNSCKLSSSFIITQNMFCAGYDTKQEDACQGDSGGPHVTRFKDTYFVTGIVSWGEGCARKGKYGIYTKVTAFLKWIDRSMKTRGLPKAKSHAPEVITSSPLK
Chain of Factor Xa (P00742 41-179): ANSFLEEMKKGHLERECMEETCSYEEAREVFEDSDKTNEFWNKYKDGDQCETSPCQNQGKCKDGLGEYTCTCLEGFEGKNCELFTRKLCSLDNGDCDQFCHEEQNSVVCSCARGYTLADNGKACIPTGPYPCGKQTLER
Chain of Elastase (P08246 30-267): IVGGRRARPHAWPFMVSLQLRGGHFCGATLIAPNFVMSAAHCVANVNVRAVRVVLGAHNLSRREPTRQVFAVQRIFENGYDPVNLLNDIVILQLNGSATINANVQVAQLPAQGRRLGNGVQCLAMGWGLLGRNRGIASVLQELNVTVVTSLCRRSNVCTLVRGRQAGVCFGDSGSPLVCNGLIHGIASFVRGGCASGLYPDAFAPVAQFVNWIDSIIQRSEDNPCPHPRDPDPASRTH
Chain of Cathepsin S (P25774 115-331): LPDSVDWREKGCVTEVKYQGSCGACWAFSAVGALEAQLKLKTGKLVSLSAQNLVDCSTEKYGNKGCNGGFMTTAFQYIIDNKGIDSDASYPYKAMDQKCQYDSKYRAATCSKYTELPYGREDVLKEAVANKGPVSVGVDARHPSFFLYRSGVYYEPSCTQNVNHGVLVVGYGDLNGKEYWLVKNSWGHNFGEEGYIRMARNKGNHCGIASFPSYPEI
Chain of Furin (P09958 108-715): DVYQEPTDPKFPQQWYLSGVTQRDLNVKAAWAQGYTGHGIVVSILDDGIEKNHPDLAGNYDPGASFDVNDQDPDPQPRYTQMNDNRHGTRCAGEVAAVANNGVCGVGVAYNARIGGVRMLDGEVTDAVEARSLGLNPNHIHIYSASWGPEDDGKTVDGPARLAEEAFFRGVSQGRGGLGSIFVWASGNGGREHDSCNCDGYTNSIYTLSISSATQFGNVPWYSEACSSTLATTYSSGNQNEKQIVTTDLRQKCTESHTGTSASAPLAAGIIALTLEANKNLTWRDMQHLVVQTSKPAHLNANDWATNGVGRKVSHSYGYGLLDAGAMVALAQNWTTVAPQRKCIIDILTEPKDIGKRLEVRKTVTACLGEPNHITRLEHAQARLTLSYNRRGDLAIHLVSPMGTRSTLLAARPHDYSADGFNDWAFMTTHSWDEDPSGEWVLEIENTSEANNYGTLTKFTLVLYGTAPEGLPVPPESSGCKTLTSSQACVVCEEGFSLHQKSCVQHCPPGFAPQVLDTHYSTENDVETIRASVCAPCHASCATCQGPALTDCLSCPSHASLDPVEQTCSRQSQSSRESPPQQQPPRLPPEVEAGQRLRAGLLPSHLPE
Chain of ACE1 (P12821 30-1261): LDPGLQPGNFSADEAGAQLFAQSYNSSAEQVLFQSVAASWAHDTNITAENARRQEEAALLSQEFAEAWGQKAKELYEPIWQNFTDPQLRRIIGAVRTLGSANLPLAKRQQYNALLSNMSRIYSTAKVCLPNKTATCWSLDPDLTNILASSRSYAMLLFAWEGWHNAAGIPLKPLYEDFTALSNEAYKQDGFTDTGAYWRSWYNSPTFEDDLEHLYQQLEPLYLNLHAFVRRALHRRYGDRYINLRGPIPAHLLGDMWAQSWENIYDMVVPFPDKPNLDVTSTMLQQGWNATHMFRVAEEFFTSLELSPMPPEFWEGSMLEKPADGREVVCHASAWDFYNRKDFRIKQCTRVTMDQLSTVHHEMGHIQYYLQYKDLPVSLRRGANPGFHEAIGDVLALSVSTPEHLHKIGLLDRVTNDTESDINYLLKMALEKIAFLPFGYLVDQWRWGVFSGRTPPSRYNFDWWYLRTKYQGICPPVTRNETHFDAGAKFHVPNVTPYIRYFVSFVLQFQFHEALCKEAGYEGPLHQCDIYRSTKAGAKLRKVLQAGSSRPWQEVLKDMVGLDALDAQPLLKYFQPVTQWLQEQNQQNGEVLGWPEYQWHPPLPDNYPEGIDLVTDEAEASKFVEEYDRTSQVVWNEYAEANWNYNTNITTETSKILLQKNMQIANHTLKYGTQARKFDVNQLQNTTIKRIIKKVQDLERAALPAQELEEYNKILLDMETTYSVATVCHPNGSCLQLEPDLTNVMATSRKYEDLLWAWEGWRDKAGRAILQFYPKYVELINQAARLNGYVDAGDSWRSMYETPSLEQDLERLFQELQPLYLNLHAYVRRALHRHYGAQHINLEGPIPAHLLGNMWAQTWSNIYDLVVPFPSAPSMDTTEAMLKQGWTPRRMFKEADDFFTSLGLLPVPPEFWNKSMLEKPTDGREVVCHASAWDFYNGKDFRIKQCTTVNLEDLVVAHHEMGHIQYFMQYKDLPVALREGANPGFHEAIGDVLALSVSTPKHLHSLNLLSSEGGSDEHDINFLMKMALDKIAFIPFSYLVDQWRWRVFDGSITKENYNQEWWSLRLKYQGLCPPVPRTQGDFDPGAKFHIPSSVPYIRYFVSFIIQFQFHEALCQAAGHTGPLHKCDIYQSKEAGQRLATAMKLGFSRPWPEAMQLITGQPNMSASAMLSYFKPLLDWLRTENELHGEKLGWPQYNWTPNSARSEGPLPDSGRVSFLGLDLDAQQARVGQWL
Chain of Trypsin (P00760 24-246): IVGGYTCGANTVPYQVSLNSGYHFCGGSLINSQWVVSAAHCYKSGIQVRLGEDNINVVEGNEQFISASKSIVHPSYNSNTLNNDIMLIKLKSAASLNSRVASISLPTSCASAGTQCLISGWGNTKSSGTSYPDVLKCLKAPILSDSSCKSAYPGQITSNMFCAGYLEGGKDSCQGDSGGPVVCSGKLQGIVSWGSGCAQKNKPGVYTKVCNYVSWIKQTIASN

CC(C)CC(NC(=O)OCc1ccccc1)C(=O)NC(CC1CCNC1=O)C(O)S(=O)(=O)O (stereo not shown) [GC376, reference compound]
half-life (in vitro [1]): > 1.33 h
EC50 (SARS-CoV-2 [2]): 51 nM
half-life (in vitro [3]): > 4 h
solubility (physchem): ≤ 1000 µM
IC50 (Cathepsin L [4]): 0.33 nM
concentrations at which turbidity was observed: 25000 to 200000 µM
half-life (in vitro [5]): > 1.33 h
Normalized chymotrypsin activity (human chymotrypsin): 1.05 and 0.8698 and 0.9664
Protease activity in cell lysate normalised to DMSO (Figure S22D) (human chymotrypsin): 1.05 and 0.8698 and 0.9664
EC50 (SARS-CoV-2 [6]): 146 nM
half-life (in vitro [7]): > 4 h
EC50 (SARS-CoV-2 [8]; Severe acute respiratory syndrome coronavirus 2, Vero C1008, 72 h, read-out: EC50, inhibition of SARS-CoV-2 viral replication): 6000 nM
EC50 (SARS-CoV-2 [8]; Severe acute respiratory syndrome coronavirus 2, Vero C1008, read-out: SARS-CoV-2 Vero E6 EC50): 9000 nM

CC(C)C[C@H](NC(=O)OCc1cccc(C(F)(F)F)c1)C(=O)N[C@@H](C[C@@H]1CCNC1=O)C(O)S(=O)(=O)O (stereo partly shown) [NK01-63]
IC50 (MMP 1): > 100000 nM
IC50 (Thrombin a): > 100000 nM
IC50 (Urokinase): > 100000 nM
effect on replication of Influenza H1N1 (in words) [9]: no effect was observed
EC50 ([9]; Influenza A virus, H1N1, MDCK, read-out: Influenza A (H1N1) MDCK EC50): > 100000 nM
IC50 (Factor Xa): > 100000 nM
EC50 ([10]; Huh-7, read-out: EC50, human coronavirus 229E): < 100 nM
EC50 ([10]; Huh-7, read-out: HCoV-229E Huh-7 EC50): 170 nM
IC50 (PLpro): > 100000 nM
inhibition of SARS-CoV-2 (Figure s17b dose-response, replicate values) (SARS-CoV-2 [2]): 85.8805 and 70.4035 and 120.64 and 101.121 and 104.666 and 80.4107 and 75.7397 and 52.4625 and 52.0629 and 53.1789 and 26.443 and 29.7439 and 43.7589 and 41.2695 and 18.2065 and 24.2009 and 38.2936 and 12.6905 and -1.598 and 19.9884 and -12.0156
EC50 (SARS-CoV-2 [2]): 6 nM
IC50 (Trypsin): > 100000 nM
Body weight relative to day 0 (Figure 6A) [11]: 100
IC50 (TMPRSS2): > 100000 nM
IC50 (Cathepsin L [12]; Human liver, substrate 1 (Z-FR-AMC), […] Cathepsin L, read-out: IC50): 6 nM
IC50 (Cathepsin L [12]; Human liver, substrate 2 (MCA-PLGL-Dap(Dnp)-AR-NH2), 0.5 nM Cathepsin L, read-out: IC50): 170 nM
IC50 (Cathepsin L [12]; read-out: IC50 on human cathepsin L): 6 nM
IC50 (Cathepsin S): 30 nM
EC50 ([13]; Middle East respiratory syndrome-related coronavirus, Vero 76, read-out: MERS-CoV Vero 76 EC50): < 1000 nM
EC50 ([13]; read-out: MERS-CoV Vero 76 EC50): 820 nM
observed inactivation rate vs compound concentration (Figure S19, replicate values) (SARS-CoV-2 3CL protease [14]): 0.0289 and 0.04017 and 0.02561 and 0.0288 and 0.05998 and 0.02398 and 0.0512 and 0.02223 and 0.03571 and 0.0324 and 0.05689 and 0.02237 and 0.0081 and 0.01635 and 0.01687
kinact/KI (SARS-CoV-2 3CL protease [14]; read-out: SARS-CoV-2 3CLpro kinact/KI): 73300 M⁻¹ s⁻¹
IC50 (Elastase): > 100000 nM
IC50 (Caspase 8): 18000 nM
IC50 (Furin): > 100000 nM
EC90 (SARS-CoV-2 [15]): 81 nM
IC50 (ACE2): > 100000 nM
appearance of dosing solution in water (2 mg/ml (3.5 mM) in water): the solution was clear
EC50 (SARS-CoV-2 [6]): 146 nM
EC50 [16]: < 100 nM
CC50 (in vitro [17]): > 100000 nM
IC50 (ACE1): > 100000 nM
IC50 (SARS-CoV-2 3CL protease [18]; 20 nM protease): 16 nM
normalized activity, dose-response curve (Figure S16) (SARS-CoV-2 3CL protease [18]; Concentration of inhibitor (nM) 0.19382): 93.111 and 89.2676
normalized activity, dose-response curve (Figure S16) (SARS-CoV-2 3CL protease [18]; Concentration of inhibitor (nM) 0.49485): 89.4126 and 81.5809
normalized activity, dose-response curve (Figure S16) (SARS-CoV-2 3CL protease [18]; Concentration of inhibitor (nM) 0.79588): 77.0123 and 75.7796
normalized activity, dose-response curve (Figure S16) (SARS-CoV-2 3CL protease [18]; Concentration of inhibitor (nM) 1.09691): 63.0167 and 61.2038
normalized activity, dose-response curve (Figure S16) (SARS-CoV-2 3CL protease [18]; Concentration of inhibitor (nM) 1.39794): 43.8724 and 49.3111
normalized activity, dose-response curve (Figure S16) (SARS-CoV-2 3CL protease [18]; Concentration of inhibitor (nM) 1.69897): 23.8579 and 30.4568
normalized activity, dose-response curve (Figure S16) (SARS-CoV-2 3CL protease [18]; Concentration of inhibitor (nM) 2): 10.3698 and 13.7056
normalized activity, dose-response curve (Figure S16) (SARS-CoV-2 3CL protease [18]; Concentration of inhibitor (nM) 2.30103): 8.412 and 10.6599
normalized activity, dose-response curve (Figure S16) (SARS-CoV-2 3CL protease [18]; Concentration of inhibitor (nM) 2.60206): 5.004 and 8.702
normalized activity, dose-response curve (Figure S16) (SARS-CoV-2 3CL protease [18]; Concentration of inhibitor (nM) -0.10721): 91.5881 and 97.1719
normalized activity, dose-response curve (Figure S16) (SARS-CoV-2 3CL protease [18]; Concentration of inhibitor (nM) -0.40824): 100 and 96.1566
IC50 (SARS-CoV-2 3CL protease [18]; Supplementary Table 2): 6 nM
body weight change / in vivo toxicity [19]: no in vivo toxicity via either route of administration; also recorded: No significant change in body weight
IC50 (Cathepsin B): 1100 nM
EC50 ([20]; Vero 76, read-out: SARS-CoV Vero 76 EC50): < 3000 nM
EC50 ([20]; read-out: SARS-CoV Vero 76 EC50): 2100 nM
concentration in plasma and lung as multiple of EC90 [21]: > 100 x EC90
IC50 (Cathepsin K): 40 nM

From PMC8989888, “Development of optimized drug-like small molecule inhibitors of the SARS-CoV-2 3CL protease for treatment of COVID-19” (Nature Communications, 2022)
